# Source: patent publication US7964596B2, “Therapeutic compounds” (Allergan, Inc., priority 2008, dated 2011)
# “Also recorded” adds a separate entry of the source.
# Test system: lashes and adjacent hairs of patients having glaucoma
# Experiment: Observation of lashes and adjacent hairs in glaucoma patients treated in only one eye
# Format: in vivo, human
# Conditions: glaucoma patients taking the drug in only one eye; gross inspection and slit lamp biomicroscope
# Text: In the course of treating patients having glaucoma, treatment may only be appropriate in one eye. […] The lash appearance on the lids of the treated eyes would have appeared quite attractive if it represented a bilateral phenomenon. As a result of its asymmetric nature, the long lashes on one side could be construed as disturbing from a cosmetic standpoint. A systemic examination was preformed as a result of the asymmetric phenomenon. It soon became apparent that this altered appearance was not an isolated finding. […] Definite differences could be identified to varying degrees in the lashes and adjacent hairs of all patients who were taking the drug on a unilateral basis for longer than 6 months.
# The changes in the lashes were apparent on gross inspection in several patients once attention was focused on the issue. In those with light colored hair and lashes, the differences were only seen easily with the aid of the high magnification and lighting capabilities of the slit lamp biomicroscope. In the course of glaucoma follow-up examination, attention is generally immediately focused on the eye itself. As a result of the high power magnification needed only one eye is seen at a time and the eye is seen at a high enough power that the lashes are not in focus. […]
smiles,measurement,value
CCNC(=O)CCC/C=C\C[C@@H]1[C@@H](/C=C/[C@@H](O)CCc2ccccc2)[C@H](O)C[C@@H]1O [bimatoprost],lash / hair growth in treated eye versus non-treated eye,"longer, thicker, and fuller in the treated eye than in the non-treated eye; also recorded: hair growth is stimulated"
